# Tested on: patients of the REDUCE-IT and earlier EPA placebo-controlled trials
# Assay: Example 3: adverse events by risk ratio, icosapent ethyl vs placebo (candidate categories; infectious disease terms of interest)
# Conditions: ISS
compound,measurement,setting,value
"CC/C=C\C/C=C\C/C=C\C/C=C\C/C=C\CCCC(=O)OCC [icosapent ethyl, eicosapentaenoic acid ethyl ester]",AR: Cholesterol Increased (AE table),,0.9%
same,"AR: Chorea, Related (AE table)",,0.7%
same,"AR: Constipation, Related (AE table)",,0.5%
same,"AR: Diarrhea, Any Severity (AE table)",,9.8%
same,"AR: Diarrhea, Mild Severity (AE table)",,7.4%
same,"AR: Diarrhea, Related (AE table)",,8.4%
same,"AR: Flatulence, Any Severity (AE table)",,1.1%
same,"AR: Flatulence, Mild Severity (AE table)",,0.9%
same,"AR: Flatulence, Related (AE table)",,1.1%
same,"AR: Frequent Bowel Movements, Any Severity (AE table)",,0.2%
same,"AR: Frequent Bowel Movements, Mild Severity (AE table)",,0.2%
same,"AR: Frequent Bowel Movements, Related (AE table)",,0.2%
same,AR: Hot Flush (AE table),,0.6%
same,"AR: Huntington's Chorea, Any Severity (AE table)",,1.0%
same,"AR: Huntington's Chorea, Mild Severity (AE table)",,0.8%
same,AR: Menorrhagia (AE table),,0.4%
same,"AR: Muscle spasms, Related (AE table)",,0.2%
same,"AR: Nasopharyngitis, Any Severity (AE table)",,4.3%
same,"AR: Nasopharyngitis, Mild Severity (AE table)",,3.3%
same,AR: Urine Protein Present (AE table),,0.1%
same,"AR: Weight loss, Related (AE table)",,0.3%
same,ARR: Cholesterol Increased (AE table),,−1.4%
same,"ARR: Chorea, Related (AE table)",,−0.5%
same,"ARR: Constipation, Related (AE table)",,−0.8%
same,"ARR: Diarrhea, Any Severity (AE table)",,−1.6%
same,"ARR: Diarrhea, Mild Severity (AE table)",,−2.2%
same,"ARR: Diarrhea, Related (AE table)",,−1.5%
same,"ARR: Flatulence, Any Severity (AE table)",,−0.8%
same,"ARR: Flatulence, Mild Severity (AE table)",,−0.8%
same,"ARR: Flatulence, Related (AE table)",,−0.8%
same,"ARR: Frequent Bowel Movements, Any Severity (AE table)",,−0.6%
same,"ARR: Frequent Bowel Movements, Mild Severity (AE table)",,−0.4%
same,"ARR: Frequent Bowel Movements, Related (AE table)",,−0.6%
same,ARR: Hot Flush (AE table),,−0.3%
same,"ARR: Huntington's Chorea, Any Severity (AE table)",,−1.3%
same,"ARR: Huntington's Chorea, Mild Severity (AE table)",,−0.9%
same,ARR: Menorrhagia (AE table),,−0.6%
same,"ARR: Muscle spasms, Related (AE table)",,−0.0%
same,"ARR: Nasopharyngitis, Any Severity (AE table)",,−2.3%
same,"ARR: Nasopharyngitis, Mild Severity (AE table)",,−2.3%
same,ARR: Urine Protein Present (AE table),,−0.2%
same,"ARR: Weight loss, Related (AE table)",,−0.4%
same,NNT: Cholesterol Increased (AE table),,69
same,"NNT: Chorea, Related (AE table)",,187
same,"NNT: Constipation, Related (AE table)",,122
same,"NNT: Diarrhea, Any Severity (AE table)",,61
same,"NNT: Diarrhea, Mild Severity (AE table)",,45
same,"NNT: Diarrhea, Related (AE table)",,65
same,"NNT: Flatulence, Any Severity (AE table)",,121
same,"NNT: Flatulence, Mild Severity (AE table)",,129
same,"NNT: Flatulence, Related (AE table)",,121
same,"NNT: Frequent Bowel Movements, Any Severity (AE table)",,173
same,"NNT: Frequent Bowel Movements, Mild Severity (AE table)",,259
same,"NNT: Frequent Bowel Movements, Related (AE table)",,173
same,NNT: Hot Flush (AE table),,292
same,"NNT: Huntington's Chorea, Any Severity (AE table)",,77
same,"NNT: Huntington's Chorea, Mild Severity (AE table)",,109
same,NNT: Menorrhagia (AE table),,159
same,"NNT: Muscle spasms, Related (AE table)",,2007
same,"NNT: Nasopharyngitis, Any Severity (AE table)",,43
same,"NNT: Nasopharyngitis, Mild Severity (AE table)",,43
same,NNT: Urine Protein Present (AE table),,519
same,"NNT: Weight loss, Related (AE table)",,230
same,Risk Ratio (95% CI): Cholesterol Increased (AE table),,0.165 (0.036 to 0.759) 5
same,"Risk Ratio (95% CI): Chorea, Related (AE table)",,0.445(0.107 to 1.853) 3
same,"Risk Ratio (95% CI): Constipation, Related (AE table)",,0.148 (0.017 to 1.265) 5
same,"Risk Ratio (95% CI): Diarrhea, Any Severity (AE table)",,0.847 (0.603 to 1.191) 1
same,"Risk Ratio (95% CI): Diarrhea, Mild Severity (AE table)",,0.741 (0.498 to 1.103) 2
same,"Risk Ratio (95% CI): Diarrhea, Related (AE table)",,0.834 (0.575 to 1.210) 1
same,"Risk Ratio (95% CI): Flatulence, Any Severity (AE table)",,0.463 (0.152 to 1.408) 3
same,"Risk Ratio (95% CI): Flatulence, Mild Severity (AE table)",,0.424 (0.125 to 1.440) 3
same,"Risk Ratio (95% CI): Flatulence, Related (AE table)",,0.463 (0.152 to 1.408) 3
same,"Risk Ratio (95% CI): Frequent Bowel Movements, Any Severity (AE table)",,[0 drug vs 3 PBO]
same,"Risk Ratio (95% CI): Frequent Bowel Movements, Mild Severity (AE table)",,[0 drug vs 2 PBO]
same,"Risk Ratio (95% CI): Frequent Bowel Movements, Related (AE table)",,[0 drug vs 3 PBO]
same,Risk Ratio (95% CI): Hot Flush (AE table),,0.556 (0.125 to 2.474) 3
same,"Risk Ratio (95% CI): Huntington's Chorea, Any Severity (AE table)",,0.247 (0.067 to 0.908) 4
same,"Risk Ratio (95% CI): Huntington's Chorea, Mild Severity (AE table)",,0.318 (0.083 to 1.223) 4
same,Risk Ratio (95% CI): Menorrhagia (AE table),,0.185 (0.021 to 1.653) 5
same,"Risk Ratio (95% CI): Muscle spasms, Related (AE table)",,0.741 (0.046 to 11.826) 2
same,"Risk Ratio (95% CI): Nasopharyngitis, Any Severity (AE table)",,0.588 (0.344 to 1.004) 3
same,"Risk Ratio (95% CI): Nasopharyngitis, Mild Severity (AE table)",,0.494 (0.265 to 0.921) 3
same,Risk Ratio (95% CI): Urine Protein Present (AE table),,[0 drug vs 1 PBO]
same,"Risk Ratio (95% CI): Weight loss, Related (AE table)",,0.247 (0.026 to 2.369) 4
same,ARR,"Chorea, Related",−0.5%
same,NNT,"Chorea, Related",187
same,Risk Ratio (95% CI),"Chorea, Related",0.445 (0.107 to 1.853) 3
same,ARR,"Constipation, Related",−0.8%
same,NNT,"Constipation, Related",122
same,Risk Ratio (95% CI),"Constipation, Related",0.148 (0.017 to 1.265) 5
same,ARR,Cough,0.9%
same,NNT,Cough,−112
same,Risk Ratio (95% CI),Cough,1.928 (0.692 to 5.373) −3
same,ARR,"Diarrhea, Any Severity",−1.6%
same,NNT,"Diarrhea, Any Severity",61
same,Risk Ratio (95% CI),"Diarrhea, Any Severity",0.847 (0.603 to 1.191) 1
same,ARR,"Diarrhea, Mild Severity",−2.2%
same,NNT,"Diarrhea, Mild Severity",45
same,Risk Ratio (95% CI),"Diarrhea, Mild Severity",0.741 (0.498 to 1.103) 2
same,ARR,"Diarrhea, Related",−1.5%
same,NNT,"Diarrhea, Related",65
same,Risk Ratio (95% CI),"Diarrhea, Related",0.834 (0.575 to 1.210) 1
same,ARR,"Flatulence, Any Severity",−0.8%
same,NNT,"Flatulence, Any Severity",121
same,Risk Ratio (95% CI),"Flatulence, Any Severity",0.463 (0.152 to 1.408) 3
same,ARR,"Flatulence, Mild Severity",−0.8%

# Source: US20210308089A1, “METHODS OF TREATING AND/OR PREVENTING VIRAL INFECTIONS AND/OR DISEASES CAUSED BY VIRUSES IN A SUBJECT IN NEED THEREOF” (priority 2020, published 2021)
